Like-named read-outs stand apart in the source and are kept apart here.

These results are taken from patent publication US11702404B2, “GLP-1R modulating compounds” (priority 2019, dated 2023).

The target of one data set is GLP-1R (Homo sapiens, UniProt P43220). Put plainly: GLP-1R activation: cAMP increase in CHO cells stably expressing GLP-1R. The data set is classed as cell-based.
Data set [1] is described as follows: Microsomal stability, human liver microsomes (predicted hepatic clearance). The following applies: predicted from in vitro microsomal stability data.
Setting [2] is: cAMP increase, CHO cells stably expressing GLP-1R, 10 point dose response, 30 minutes incubation, read-out: EC50.

Chain of GLP-1R (P43220 24-463): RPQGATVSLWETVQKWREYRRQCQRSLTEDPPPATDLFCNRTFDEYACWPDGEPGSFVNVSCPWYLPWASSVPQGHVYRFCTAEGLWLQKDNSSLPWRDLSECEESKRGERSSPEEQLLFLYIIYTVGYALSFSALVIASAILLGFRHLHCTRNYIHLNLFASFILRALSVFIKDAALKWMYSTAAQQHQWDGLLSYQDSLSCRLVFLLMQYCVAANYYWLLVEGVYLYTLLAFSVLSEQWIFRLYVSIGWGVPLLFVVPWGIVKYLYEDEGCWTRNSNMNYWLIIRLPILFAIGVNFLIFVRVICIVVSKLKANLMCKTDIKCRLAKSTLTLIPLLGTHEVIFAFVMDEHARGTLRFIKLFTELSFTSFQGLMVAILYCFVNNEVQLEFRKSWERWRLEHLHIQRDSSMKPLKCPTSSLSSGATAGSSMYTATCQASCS

Take `O=C(O)c1ccc2nc(Cc3cc(F)c(-c4cccc(OCc5ccc(Cl)cc5F)n4)cc3F)n(CC3(CF)CC3)c2c1` [Example 432, 2-(4-(6-((4-chloro-2-fluorobenzyl)oxy)pyridin-2-yl)-2,5-difluorobenzyl)-1-((1-(fluoromethyl)cyclopropyl)methyl)-1H-benzo[d]imidazole-6-carboxylic acid]: at GLP-1R (setting [2]), the EC50 (usually the midpoint of the concentration-response curve) was found to be 2.01 nM. In addition, the “Predicted Hepatic Clearance (Pred. Cl.)” value in data set [1] is recorded as <0.11 L/h/kg.

Turning to `CO[C@@H]1COC[C@@H]1n1c(Cc2cc(F)c(-c3cccc(OCc4ccc(C#N)cc4F)n3)cc2F)nc2ccc(C(=O)O)cc21` [Example 711], at GLP-1R (setting [2]), the EC50 came to 0.08 nM. For the same molecule, the “Predicted Hepatic Clearance (Pred. Cl.)” value in data set [1] is on record as 0.38 L/h/kg.

Regarding `Cn1ccnc1Cn1c(Cc2ccc(-c3cccc(OCc4ccc(C#N)cc4F)n3)cc2F)nc2ccc(C(=O)O)cc21` [Example 607], on GLP-1R (setting [2]), the EC50 is 108 nM. For the same molecule, the “Predicted Hepatic Clearance (Pred. Cl.)” value in data set [1] is reported as 0.18 L/h/kg.

Regarding `COCCn1c(Cc2ccc(-c3cccc(OCc4ccc(C#N)cc4F)n3)cc2F)nc2ccc(C3(C(=O)O)CC3)cc21` [Example 210, 1-(2-(4-(6-((4-cyano-2-fluorobenzyl)oxy)pyridin-2-yl)-2-fluorobenzyl)-1-(2-methoxyethyl)-1H-benzo[d]imidazol-6-yl)cyclopropane-1-carboxylic acid], the half-maximal effective concentration (EC50) on GLP-1R (setting [2]) is ≥ 1000 nM. The “Predicted Hepatic Clearance (Pred. Cl.)” value in data set [1] was 0.265 L/h/kg.

As to `N#CCC1(Cn2c(Cc3ccc(-c4ccnc(OCc5ccc(C#N)cc5F)n4)c(F)c3)nc3ccc(C(=O)O)nc32)CC1` [Example 300, 2-(4-(2-((4-cyano-2-fluorobenzyl)oxy)pyrimidin-4-yl)-3-fluorobenzyl)-3-((1-(cyanomethyl)cyclopropyl)methyl)-3H-imidazo[4,5-b]pyridine-5-carboxylic acid], the EC50 at GLP-1R (setting [2]) was determined as 0.68 nM. For the same molecule, the “Predicted Hepatic Clearance (Pred. Cl.)” value in data set [1] is <0.11 L/h/kg.

In the case of `N#Cc1ccc(COc2cccc(-c3ccc(Cc4nc5ccc(C(=O)O)cc5n4CCCF)c(F)c3)n2)c(F)c1` [Example 379, 2-(4-(6-((4-cyano-2-fluorobenzyl)oxy)pyridin-2-yl)-2-fluorobenzyl)-1-(3-fluoropropyl)-1H-benzo[d]imidazole-6-carboxylic acid], the EC50 on GLP-1R (setting [2]) is 2.8 nM. Further, in data set [1], the “Predicted Hepatic Clearance (Pred. Cl.)” value is reported as 0.21 L/h/kg.

As to `COCCn1c(Cc2ccc(-c3cccc(OCc4cccc(OC(F)F)c4)n3)cc2F)nc2ccc(C(=O)O)cc21` [Example 505, 2-(4-(6-((3-(difluoromethoxy)benzyl)oxy)pyridin-2-yl)-2-fluorobenzyl)-1-(2-methoxyethyl)-1H-benzo[d]imidazole-6-carboxylic acid], at GLP-1R (setting [2]), the EC50 was 41.2 nM. Besides, the “Predicted Hepatic Clearance (Pred. Cl.)” value in data set [1] was <0.11 L/h/kg.

For the molecule `COC1(Cn2c(Cc3cc(F)c(-c4cccc(OCc5ccc(C#N)cc5F)n4)cc3F)nc3ccc(C(=O)O)cc32)CN(C(C)=O)C1` [Example 687], the EC50 at GLP-1R (setting [2]) worked out at 181 nM. For the same molecule, in data set [1], the “Predicted Hepatic Clearance (Pred. Cl.)” value is reported as 0.52 L/h/kg.

Take `COCCn1c(C2CCc3cc(-c4cccc(OCc5ccc(C#N)cc5F)n4)ccc32)nc2ccc(C(=O)O)cc21` (single isomer, unassigned) [Example 47, 2-(5-(6-((4-cyano-2-fluorobenzyl)oxy)pyridin-2-yl)-2,3-dihydro-1H-inden-1-yl)-1-(2-methoxyethyl)-1H-benzo[d]imidazole-6-carboxylic acid]: on GLP-1R (setting [2]), the EC50 was 1440 nM. Moreover, in data set [1], the “Predicted Hepatic Clearance (Pred. Cl.)” value is 0.28 L/h/kg.

As for `CS(=O)(=O)N1CCC[C@@H]1Cn1c(Cc2cc(F)c(-c3cccc(OCc4ccc(C#N)cc4F)n3)cc2F)nc2ccc(C(=O)O)cc21` [Example 735], at GLP-1R (read-out: EC50), the EC50 was 1.7 nM. Besides, the “Predicted Hepatic Clearance (Pred. Cl.)” value in data set [1] is 0.43 L/h/kg.

For the molecule `COCCn1c(Cc2ccc(-c3cccc(NC(=O)c4ccc(C#N)cc4F)n3)cc2F)nc2ccc(C(=O)O)cc21` [Example 113, 2-(4-(6-(4-cyano-2-fluorobenzamido)pyridin-2-yl)-2-fluorobenzyl)-1-(2-methoxyethyl)-1H-benzo[d]imidazole-6-carboxylic acid], the EC50 at GLP-1R (setting [2]) was found to be 2150 nM. Moreover, in data set [1], the “Predicted Hepatic Clearance (Pred. Cl.)” value is 0.59 L/h/kg.

For `COCCn1c(Cc2ccc(-c3ccc(F)c(OCc4ccc(C#N)cc4F)n3)c(F)c2)nc2ccc(C(=O)O)cc21` [Example 320, 2-(4-(6-((4-cyano-2-fluorobenzyl)oxy)-5-fluoropyridin-2-yl)-3-fluorobenzyl)-1-(2-methoxyethyl)-1H-benzo[d]imidazole-carboxylic acid], the EC50 on GLP-1R (setting [2]) came to 18 nM. In addition, in data set [1], the “Predicted Hepatic Clearance (Pred. Cl.)” value is 0.25 L/h/kg.

Consider `N#Cc1ccc(COc2cccc(-c3cc(F)c(Cc4nc5ccc(C(=O)O)cc5n4CCOCC(F)F)cc3F)n2)c(F)c1` [Example 828], for which the concentration for a half-maximal effect (EC50) on GLP-1R (setting [2]) turned out to be 3.5 nM. In addition, the “Predicted Hepatic Clearance (Pred. Cl.)” value in data set [1] is 0.51 L/h/kg.

Regarding `COCCn1c(Cc2ccc(-c3cc(C(=O)O)cc(OCc4ccc(C#N)cc4F)n3)cc2F)nc2ccc(C(=O)O)cc21` [Example 97, 2-(4-(4-carboxy-6-((4-cyano-2-fluorobenzyl)oxy)pyridin-2-yl)-2-fluorobenzyl)-1-(2-methoxyethyl)-1H-benzo[d]imidazole-6-carboxylic acid], at GLP-1R (setting [2]), the EC50 worked out at 2780 nM. In addition, the “Predicted Hepatic Clearance (Pred. Cl.)” value in data set [1] is given as 0.21 L/h/kg.

As to `N#Cc1ccc(COc2cccc(-c3cc(F)c(Cc4nc5ccc(C(=O)O)cc5n4Cc4ccon4)c(F)c3)n2)c(F)c1` [Example 594, 2-(4-(6-((4-cyano-2-fluorobenzyl)oxy)pyridin-2-yl)-2,6-difluorobenzyl)-1-(isoxazol-3-ylmethyl)-1H-benzo[d]imidazole-6-carboxylic acid], the EC50 on GLP-1R (setting [2]) was found to be 0.77 nM. Also, the “Predicted Hepatic Clearance (Pred. Cl.)” value in data set [1] is on record as 0.26 L/h/kg.

In the case of `COC(CN)Cn1c(Cc2ccc(-c3cccc(OCc4ccc(C#N)cc4F)n3)cc2F)nc2ccc(C(=O)O)cc21` (single isomer, unassigned) [Example 340, 1-(3-amino-2-methoxypropyl)-2-(4-(6-((4-cyano-2-fluorobenzyl)oxy)pyridin-2-yl)-2-fluorobenzyl)-1H-benzo[d]imidazole-6-carboxylic acid], on GLP-1R (setting [2]), the EC50 is 44.1 nM. Also, the “Predicted Hepatic Clearance (Pred. Cl.)” value in data set [1] is <0.11 L/h/kg.

Turning to `N#Cc1ccc(COc2nc(-c3ccc(Cc4nc5ccc(C(=O)O)cc5n4C[C@@H]4CCO4)c(F)c3)ccc2F)c(F)c1` [Example 128, (S)-2-(4-(6-((4-cyano-2-fluorobenzyl)oxy)-5-fluoropyridin-2-yl)-2-fluorobenzyl)-1-(oxetan-2-ylmethyl)-1H-benzo[d]imidazole-6-carboxylic acid], on GLP-1R (setting [2]), the EC50 turned out to be 0.51 nM. Also, in data set [1], the “Predicted Hepatic Clearance (Pred. Cl.)” value was <0.11 L/h/kg.

On to `COCCn1c(Cc2ccc(-c3cccc(OCc4ccc(C#N)cc4F)n3)cc2Cl)nc2ccc(C(=O)O)cc21` [Example 38, 2-(2-chloro-4-(6-((4-cyano-2-fluorobenzyl)oxy)pyridin-2-yl)benzyl)-1-(2-methoxyethyl)-1H-benzo[d]imidazole-carboxylic acid], for which the EC50 at GLP-1R (setting [2]) worked out at 6.18 nM. The “Predicted Hepatic Clearance (Pred. Cl.)” value in data set [1] is given as 0.32 L/h/kg.

As for `N#Cc1ccc(COc2cccc(-c3cc(F)c(Cc4nc5ccc(C(=O)O)cc5n4Cc4ccns4)cc3F)n2)c(F)c1` [Example 579, 2-(4-(6-((4-cyano-2-fluorobenzyl)oxy)pyridin-2-yl)-2,5-difluorobenzyl)-1-(isothiazol-5-ylmethyl)-1H-benzo[d]imidazole-6-carboxylic acid], the EC50 at GLP-1R (setting [2]) was determined as 0.35 nM. For the same molecule, in data set [1], the “Predicted Hepatic Clearance (Pred. Cl.)” value is reported as 0.96 L/h/kg.

`COCCn1c(Cc2ncc(-c3cccc(OCc4ccc(C#N)cc4F)n3)cc2F)nc2ccc(C(=O)O)cc21` [Example 60, 2-{[5-[6-[(4-cyano-2-fluoro-phenyl)methoxy]-2-pyridyl]-3-fluoro-2-pyridyl]methyl}-3-(2-methoxyethyl)benzimidazole-5-carboxylic acid]: the EC50 on GLP-1R (setting [2]) turned out to be 30 nM. Moreover, the “Predicted Hepatic Clearance (Pred. Cl.)” value in data set [1] is <0.11 L/h/kg.

Turning to `COCCn1c(Cc2cc(F)c(-c3nc(OCc4ccc(C(F)F)cc4F)ccc3F)cc2F)nc2ccc(C(=O)O)cc21` [Example 661], on GLP-1R (setting [2]), the EC50 was 1.95 nM. Also, the “Predicted Hepatic Clearance (Pred. Cl.)” value in data set [1] is given as 0.24 L/h/kg.

For `COCCn1c(Cc2ccc(-c3cccc(OCc4ccc(Cl)cc4OCC(F)F)n3)cc2F)nc2ccc(C(=O)O)cc21` [Example 244, 2-(4-(6-((4-chloro-2-(2,2-difluoroethoxy)benzyl)oxy)pyridin-2-yl)-2-fluorobenzyl)-1-(2-methoxyethyl)-1H-benzo[d]imidazole-6-carboxylic acid], the EC50 on GLP-1R (setting [2]) is 159 nM. For the same molecule, the “Predicted Hepatic Clearance (Pred. Cl.)” value in data set [1] is 0.34 L/h/kg.

As to `COCCn1c(Cc2ccc(-c3cccc(OCc4ccc(C#N)cc4F)n3)c(C)c2)nc2ccc(C(=O)O)cc21` [Example 21, 2-(4-(6-((4-cyano-2-fluorobenzyl)oxy)pyridin-2-yl)-3-methylbenzyl)-1-(2-methoxyethyl)-1H-benzo[d]imidazole-6-carboxylic acid], the response on GLP-1R (EC50 (nM)) was half-maximal at 70.9 nM (EC50). Besides, the “Predicted Hepatic Clearance (Pred. Cl.)” value in data set [1] is given as <0.11 L/h/kg.

Take `N#Cc1ccc(COc2cccc(-c3ccc(Cc4nc5cc(C(=O)O)ccc5n4CC4(CF)CC4)c(F)c3)n2)c(F)c1` [Example 552, 2-(4-(6-((4-Cyano-2-fluorobenzyl)oxy)pyridin-2-yl)-2-fluorobenzyl)-1-((1-(fluoromethyl)cyclopropyl)methyl)-1H-benzo[d]imidazole-5-carboxylic acid]: the EC50 on GLP-1R (setting [2]) stood at 18.1 nM. Further, in data set [1], the “Predicted Hepatic Clearance (Pred. Cl.)” value is listed as <0.11 L/h/kg.

In the case of `COCCn1c(Cc2cc(F)c(-c3cccc(OCc4ccc(-c5cnccn5)cc4F)n3)cc2F)nc2ccc(C(=O)O)cc21` [Example 916], the EC50 on GLP-1R (setting [2]) was found to be 2.18 nM. Also, the “Predicted Hepatic Clearance (Pred. Cl.)” value in data set [1] is 0.11 L/h/kg.

Take `N#Cc1cc(F)c(COc2nc(-c3ccc(Cc4nc5ccc(C(=O)O)cc5n4C[C@@H]4CCO4)cc3F)ccc2F)cc1F` [Example 676]: the EC50 on GLP-1R (setting [2]) was found to be 0.52 nM. Also, in data set [1], the “Predicted Hepatic Clearance (Pred. Cl.)” value is listed as 0.14 L/h/kg.
